According to patent publication US5444063A, “Enantiomerically pure β-D-dioxolane nucleosides with selective anti-Hepatitis B virus activity” (priority 1992, dated 1995):
Where “and” joins values, the source holds several entries; their conditions need not be identical. Equal entries are not always repeated. Where two headings read alike, the source gives them in different places.

Tests used:
[1] = Toxicity analysis of test compounds in 2.2.15 cells (neutral red dye uptake); assay type: cell-based; settings: human
Protocol: Toxicity analyses were performed in order to assess whether any observed antiviral effects are due to a general effect on cell viability. The method used was based on the uptake of neutral red dye, a standard and widely used assay for cell viability in a variety of virus-host systems, including HSV (herpes simplex virus) and HIV. Details of the procedure are provided in the toxicity table legends.
The test compounds were used in the form of 40 mM stock solutions in DMSO (frozen on dry ice). Daily aliquots of the test samples were made and frozen at -20° C. so that each individual aliquot would be subjected to a single freeze-thaw cycle. The daily test aliquots were thawed, suspended into culture medium at room temperature and immediately added to the cell cultures° The compounds were tested at 0.0 and 1 μM for antiviral activity. The compounds were tested for toxicity at concentrations up to 300 μM.
Toxicity analyses were performed in 96-well flat bottomed tissue culture plates. Cells for the toxicity analyses were cultured and treated with test compounds with the same schedule as used for the antiviral evaluations. Each compound was tested at 4 concentrations, each in triplicate cultures. Uptake of neutral red dye was used to determine the relative level of toxicity. The absorbance of internalized dye at […] (A510) was used for the quantitative analysis. Values are presented as a percentage of the average A510 values (±standard deviations) in 9 separate cultures of untreated cells maintained on the same 96-well plate as the test compounds.

[2] = test system: 2.2.15 cells; settings: versus untreated cultures; Korba and Gerin 1992; read-out: Concentration at which a 2-fold reduction in dye uptake is typically observed; cited from earlier work
[3] = test system: HBV; settings: relative to average levels in untreated cells; Korba and Gerin 1992; read-out: Concentration at which a 90% depression of HBV RI is typically observed; cited from earlier work
[4] = Toxicity analysis of test compounds in 2.2.15 cells (neutral red dye uptake); assay type: cell-based; settings: human; remark: listed apart in the source
[5] = test system: HBV; test: Effect of nucleosides on HBV production in 2.2.15 cells (HBV virion DNA and intracellular HBV DNA); assay type: cell-based, Hepatitis B virus; settings: for inhibition at 10 µM: Hepatitis B virus
Protocol: The ability of β-D-dioxolane-nucleosides to inhibit HBV can be measured by various experimental techniques. The assay used herein to evaluate the ability of the disclosed compounds to inhibit the replication of HBV is described in detail in Korba and Gerin, Antiviral Res. 19:55-70 (1992). […] The other compounds disclosed herein are evaluated similarly.
The antiviral evaluations were performed on two separate passages of cells, two cultures per passage (4 cultures total). All wells, in all plates, were seeded at the same density and at the same time.
Due to the inherent variations in the levels of both intracellular and extracellular HBV DNA, only depressions greater than 3.0-fold (for HBV virion DNA) or 2.5-fold (for HBV DNA replication intermediates) from the average levels for these HBV DNA forms in untreated cells are generally considered to be statistically significant [P<0.05] (Korba and Gerin, Antiviral Res. 19: 55-70, 1992). The levels of integrated HBV DNA in each cellular DNA preparation (which remain constant on a per cell basis in these experiments) were used to calculate the levels of intracellular HBV DNA forms, thereby eliminating technical variations inherent in the blot hybridization assays.
The test compounds were used in the form of 40 mM stock solutions in DMSO (frozen on dry ice). Daily aliquots of the test samples were made and frozen at -20° C. so that each individual aliquot would be subjected to a single freeze-thaw cycle. […] The compounds were tested for toxicity at concentrations up to 300 μM.

[6] = 10 μM, individual culture, listed as DDC

SMILES: Nc1ccn([C@H]2CC[C@@H](CO)O2)c(=O)n1 [2',3'-ddC, 2',3'-dideoxycytosine, reference compound]
- viability at 30 µM ([1]; 30 μM): 101 ± 1%
- viability at 100 µM ([1]; 100 μM): 97 ± 2%
- viability at 300 µM ([1]; 300 μM): 44 ± 1%
- CC50 [2]: 150 to 190 µM
- EC90 [3]: 9 to 12 µM
- viability at 1000 µM [4]: 5 ± 1%
- HBV virion DNA, day 0 [5, 6]: 66 pg/ml of cultured medium and 58 pg/ml of cultured medium and 67 pg/ml of cultured medium and 51 pg/ml of cultured medium
- HBV virion DNA, day 3 [5, 6]: 50 pg/ml of cultured medium and 52 pg/ml of cultured medium and 51 pg/ml of cultured medium and 48 pg/ml of cultured medium
- HBV virion DNA, day 6 [5, 6]: 20 pg/ml of cultured medium and 13 pg/ml of cultured medium and 19 pg/ml of cultured medium and 17 pg/ml of cultured medium
- HBV virion DNA, day 9 [5, 6]: 2 pg/ml of cultured medium and 3 pg/ml of cultured medium
- Intracellular HBV DNA on Day 10, Mono (episomal 3.2kB HBV genomes) [5, 6]: 0.9 pg/μM of cellular DNA and 1.0 pg/μM of cellular DNA and 1.4 pg/μM of cellular DNA and 1.1 pg/μM of cellular DNA
- Intracellular HBV DNA on Day 10, RI (HBV DNA replication intermediates) [5, 6]: 6 pg/μM of cellular DNA and 4 pg/μM of cellular DNA and 5 pg/μM of cellular DNA and 7 pg/μM of cellular DNA
- HBV virion DNA, day 0, mean ([5]; 10 μM, mean of 4 cultures): 60.50 pg/ml of cultured medium
- HBV virion DNA, day 3, mean ([5]; 10 μM, mean of 4 cultures): 50.25 pg/ml of cultured medium
- HBV virion DNA, day 6, mean ([5]; 10 μM, mean of 4 cultures): 17.25 pg/ml of cultured medium
- HBV virion DNA, day 9, mean ([5]; 10 μM, mean of 4 cultures): 2.25 pg/ml of cultured medium
- Intracellular HBV DNA on Day 10, Mono, mean ([5]; 10 μM, mean of 4 cultures): 1.10 pg/μM of cellular DNA
- Intracellular HBV DNA on Day 10, RI, mean ([5]; 10 μM, mean of 4 cultures): 5.50 pg/μM of cellular DNA
- inhibition at 10 µM ([5]; 0 h, read-out: % inhibition, HBV virion DNA, day 0): 3.97%
- inhibition at 10 µM ([5]; 72 h, read-out: % inhibition, HBV virion DNA, day 3): 22.4%
- inhibition at 10 µM ([5]; 144 h, read-out: % inhibition, HBV virion DNA, day 6): 77.5%
- inhibition at 10 µM ([5]; 216 h, read-out: % inhibition, HBV virion DNA, day 9): 97%
- inhibition at 10 µM ([5]; 240 h, read-out: % inhibition, intracellular HBV DNA Mono, Day 10): 56.4%
- inhibition at 10 µM ([5]; 240 h, read-out: % inhibition, intracellular HBV DNA RI, Day 10): 92.5%
- Depression of HBV DNA replication ([5]; positive treatment control, at the concentration used): significant depressions of HBV DNA replication
